Test results: US11081236B2, “Diagnostic and therapeutic methods for the treatment of breast cancer” (GENENTECH, INC., priority 2018, dated 2021)

Columns and labels:
Type in all cases: cell-based
[1] = test system: MCF7; test: RNA sequencing after E2 or DMSO treatment, MCF7
Protocol: (§1) To derive a transcriptional signature of ER pathway activity, RNA sequencing was performed on seven breast cancer cell lines following treatment with either DMSO or 1 μM estradiol (E2) for 24 hours. Briefly, RNA libraries for cell lines were made with TRUSEQ® RNA sample preparation kit (ILLUMINA®) according to the manufacturer's protocol. The libraries were sequenced on an ILLUMINA® Hi Seq 2000, using 1-4 lanes per cell line. RNA sequencing (RNA-seq) data were analyzed with HTSeqGenie (R package version 3.14.0) in BioConductor (Huber et al. Nature Methods. 112:115-21, 2015) as follows: reads were trimmed to 75 base pairs (bp), filtered for quality and rRNA/adapter contamination, and aligned to the reference genome GRCh38 using GSNAP (Wu et al. Bioinforma Oxf Engl. 26:873-81, 2010). Gene expression was quantified as Reads per Kilobase of exon model per Million mapped reads normalized by size factor (nRPKM), defined as number of reads aligning to a gene in a sample/(total number of uniquely mapped reads for that sample x gene length x size factor). Genes without gene symbol and genes of uncertain function (LOC and Corf symbols) were excluded.

[2] = test system: T47D; test: RNA sequencing after E2 or DMSO treatment, T47D
Protocol: as §1

[3] = test system: CAMA1; test: RNA sequencing after E2 or DMSO treatment, CAMA1
Protocol: as §1

[4] = test system: EFM19; test: RNA sequencing after E2 or DMSO treatment, EFM19
Protocol: as §1

[5] = gene BAMBI, 1 μM E2 24 hours vs DMSO
[6] = gene BCAS1, 1 μM E2 24 hours vs DMSO
[7] = gene CCNG2, 1 μM E2 24 hours vs DMSO
[8] = gene DDEE4, 1 μM E2 24 hours vs DMSO
[9] = gene EGLN3, 1 μM E2 24 hours vs DMSO
[10] = gene FAM1718, 1 μM E2 24 hours vs DMSO
[11] = gene GRM4, 1 μM E2 24 hours vs DMSO
[12] = gene IL1R1, 1 μM E2 24 hours vs DMSO
[13] = gene LIPH, 1 μM E2 24 hours vs DMSO
[14] = gene NBEA, 1 μM E2 24 hours vs DMSO
[15] = gene PNPLA7, 1 μM E2 24 hours vs DMSO
[16] = gene PSCA, 1 μM E2 24 hours vs DMSO
[17] = gene SEMASE, 1 μM E2 24 hours vs DMSO
[18] = gene SSPO, 1 μM E2 24 hours vs DMSO
[19] = gene STON1, 1 μM E2 24 hours vs DMSO
[20] = gene TGFB3, 1 μM E2 24 hours vs DMSO
[21] = gene TP53INP1, 1 μM E2 24 hours vs DMSO
[22] = gene TP53INP2, 1 μM E2 24 hours vs DMSO

## C[C@]12CC[C@@H]3c4ccc(O)cc4CC[C@H]3[C@@H]1CC[C@@H]2O [Compound E2, estradiol]
[1]; [5]
  Log2 FC E2 vs no E2: BAMBI: −0.571
[1]; [6]
  Log2 FC E2 vs no E2: BCAS1: −0.981
[1]; [7]
  Log2 FC E2 vs no E2: CCNG2: −1.267
[1]; [8]
  Log2 FC E2 vs no E2: DDEE4: −1.080
[1]; [9]
  Log2 FC E2 vs no E2: EGLN3: −1.090
[1]; [10]
  Log2 FC E2 vs no E2: FAM1718: −1.287
[1]; [11]
  Log2 FC E2 vs no E2: GRM4: −1.106
[1]; [12]
  Log2 FC E2 vs no E2: IL1R1: −2.160
[1]; [13]
  Log2 FC E2 vs no E2: LIPH: −1.170
[1]; [14]
  Log2 FC E2 vs no E2: NBEA: −1.132
[1]; [15]
  Log2 FC E2 vs no E2: PNPLA7: −1.046
[1]; [16]
  Log2 FC E2 vs no E2: PSCA: −2.199
[1]; [17]
  Log2 FC E2 vs no E2: SEMASE: −1.034
[1]; [18]
  Log2 FC E2 vs no E2: SSPO: −1.338
[1]; [19]
  Log2 FC E2 vs no E2: STON1: −2.067
[1]; [20]
  Log2 FC E2 vs no E2: TGFB3: −1.707
[1]; [21]
  Log2 FC E2 vs no E2: TP53INP1: −1.816
[1]; [22]
  Log2 FC E2 vs no E2: TP53INP2: −1.207
[2]; [5]
  Log2 FC E2 vs no E2: BAMBI: −1.394
[2]; [6]
  Log2 FC E2 vs no E2: BCAS1: −2.536
[2]; [7]
  Log2 FC E2 vs no E2: CCNG2: −1.310
[2]; [8]
  Log2 FC E2 vs no E2: DDEE4: −1.878
[2]; [9]
  Log2 FC E2 vs no E2: EGLN3: −2.052
[2]; [10]
  Log2 FC E2 vs no E2: FAM1718: −1.158
[2]; [11]
  Log2 FC E2 vs no E2: GRM4: −1.340
[2]; [12]
  Log2 FC E2 vs no E2: IL1R1: −2.433
[2]; [13]
  Log2 FC E2 vs no E2: LIPH: −1.330
[2]; [14]
  Log2 FC E2 vs no E2: NBEA: −1.368
[2]; [15]
  Log2 FC E2 vs no E2: PNPLA7: −1.211
[2]; [16]
  Log2 FC E2 vs no E2: PSCA: −1.253
[2]; [17]
  Log2 FC E2 vs no E2: SEMASE: −0.741
[2]; [18]
  Log2 FC E2 vs no E2: SSPO: −1.181
[2]; [19]
  Log2 FC E2 vs no E2: STON1: −2.304
[2]; [20]
  Log2 FC E2 vs no E2: TGFB3: −1.263
[2]; [21]
  Log2 FC E2 vs no E2: TP53INP1: −1.363
[2]; [22]
  Log2 FC E2 vs no E2: TP53INP2: −0.959
[3]; [5]
  Log2 FC E2 vs no E2: BAMBI: −1.072
[3]; [6]
  Log2 FC E2 vs no E2: BCAS1: −2.311
[3]; [7]
  Log2 FC E2 vs no E2: CCNG2: −2.094
[3]; [8]
  Log2 FC E2 vs no E2: DDEE4: −2.737
[3]; [9]
  Log2 FC E2 vs no E2: EGLN3: −1.533
[3]; [10]
  Log2 FC E2 vs no E2: FAM1718: −2.271
[3]; [11]
  Log2 FC E2 vs no E2: GRM4: −2.021
[3]; [12]
  Log2 FC E2 vs no E2: IL1R1: −1.686
[3]; [13]
  Log2 FC E2 vs no E2: LIPH: −1.583
[3]; [14]
  Log2 FC E2 vs no E2: NBEA: −1.550
[3]; [15]
  Log2 FC E2 vs no E2: PNPLA7: −2.068
[3]; [16]
  Log2 FC E2 vs no E2: PSCA: −3.517
[3]; [17]
  Log2 FC E2 vs no E2: SEMASE: −1.374
[3]; [18]
  Log2 FC E2 vs no E2: SSPO: −2.298
[3]; [19]
  Log2 FC E2 vs no E2: STON1: −2.609
[3]; [20]
  Log2 FC E2 vs no E2: TGFB3: −1.444
[3]; [21]
  Log2 FC E2 vs no E2: TP53INP1: −3.177
[3]; [22]
  Log2 FC E2 vs no E2: TP53INP2: −2.068
[4]; [5]
  Log2 FC E2 vs no E2: BAMBI: −1.554
[4]; [6]
  Log2 FC E2 vs no E2: BCAS1: −2.189
[4]; [7]
  Log2 FC E2 vs no E2: CCNG2: −1.442
[4]; [8]
  Log2 FC E2 vs no E2: DDEE4: −1.101
[4]; [9]
  Log2 FC E2 vs no E2: EGLN3: −1.008
[4]; [10]
  Log2 FC E2 vs no E2: FAM1718: −1.910
[4]; [11]
  Log2 FC E2 vs no E2: GRM4: −1.141
[4]; [12]
  Log2 FC E2 vs no E2: IL1R1: −2.327
[4]; [13]
  Log2 FC E2 vs no E2: LIPH: −1.844
